# Test results taken from patent publication US7335636B2, “SPRR1A and axonal regeneration” (Yale University, priority 2001, dated 2008).
# “Also recorded” adds a separate entry of the source.
# How the values were obtained:
# [1] = test system: SPRR1A; test: Immunoblot for SPRR1A protein in oligonucleotide-treated adult mouse DRG cultures; type: cell-based; conditions: preconditioned adult DRG neurons, 36 hr culture with oligonucleotide 10-50 μM
# [2] = test system: adult mouse DRG neurons; test: Antisense experiment: neurite outgrowth and branching of adult mouse DRG cultures; type: cell-based
# Description: DRG cultures and neurite outgrowth analysis. Embryonic day 7 (E7) chick, embryonic day 13 chick, or adult mouse DRGs were dissected and dissociated with 0.25% trypsin for 15 min at 37° C. For adult mouse DRG preparations, preincubation with 1 mg/ml collagenase was included. For preconditioned adult mouse DRG cultures, sciatic nerve lesions were performed 4 d before death and L3-L5 DRG dissection. Dissociated cells were preplated on tissue culture-treated plastic dishes for 1 hr at 37° C. Non-adherent cells (predominantly neurons) were collected and plated on plastic chamber slides coated with poly-L-lysine (100 μg)/laminin (10 μg/ml). In some cases, the substrate was coated with 45 ng/mm^2 bovine CNS myelin or 34 ng/mm^2 purified GST-Nogo-66 protein as described previously (Jin and Strittmatter, 1997; GrandPre et al., 2000; Fournier et al., 2001). After 6-36 hr, cells were fixed and stained, and neurite outgrowth was quantified. Images of each culture were captured with Olympix Software and analyzed with Scion Image (Jin and Strittmatter, 1997; GrandPre et al., 2000; Fournier et al., 2001). The total neurite length for each neuron was determined for 50-100 neurons in each experiment. The total number of branch points was divided by the total neurite length to obtain a branching index.
# Antisense experiment. Phosphorothioate sense and antisense oligonucleotides spanning the translation initiation site (italic type) of the mouse sprr1a sequence (sense, p-thio-[…] (SEQ ID NO:4); antisense, p-thio-[…] (SEQ ID NO:5)) were generated. Adult mouse DRG cultures were incubated with purified oligonucleotides at concentrations of 10-50 μM. Immunoblot and immunohistological analysis was performed after 36 hr of culture.
# [3] = test system: E8 chick DRGs; test: Neurite outgrowth of E8 chick DRGs triturated with SPRR1A-derived peptide; type: cell-based; conditions: trituration, 6 hours after plating on laminin
# From the text: Herpes simplex virus preparation and protein trituration. The coding region of mouse SPRR1A was amplified by PCR with an in-frame C-terminal Myc epitope and ligated to the pHSVprPUC vector. Similarly, the S100C coding region with a Myc tag was ligated to pHSVprPUC vector. The resulting plasmids were transfected into 2-2 cells with Fugene and then superinfected with 5 dl 1.2 herpes simplex virus (HSV) helper virus 1 d later as described previously (Nakamura et al., 1998; Takahashi et al., 1998, 1999). Recombinant virus was amplified through three passages and stored at −80° C. Freshly dissociated DRG neurons were allowed to adhere to cultured dishes for 30 min and then incubated with HSV preparations encoding for SPRR1A, S100C, enhanced green fluorescent protein (EGFP), or Nogo receptor. […]
# (§1) DRG cultures and neurite outgrowth analysis. […] After 6-36 hr, cells were fixed and stained, and neurite outgrowth was quantified. Images of each culture were captured with Olympix Software and analyzed with Scion Image (Jin and Strittmatter, 1997; GrandPre et al., 2000; Fournier et al., 2001). The total neurite length for each neuron was determined for 50-100 neurons in each experiment. […]
# An SPRR1A-derived peptide acts as an agent to promote axon regeneration. […] This 24 amino acid peptide was triturated into E8 chick DRGs and neurite length was measured 6 hours after the cells were plated on laminin (FIG. 8). […]
# [4] = test system: F-actin; test: Actin cosedimentation and immunoprecipitation assays; type: binding; conditions: in the presence or absence of S100C protein
# Description: Actin cosedimentation assay. The actin cosedimentation protocol has been described previously (Gonzalez et al., 1998; Sakaguchi et al., 2000). Purified monomeric actin (G-actin, 25 μM; Cytoskeleton, Denver, Colo.) was incubated with recombinant SPRR1A (200 nM), GST-S100C (2 μM), or GST (2 μM) in an actin polymerization buffer (5 mM Tris, pH 8.0, 1.0 mM CaCl2, 1.0 mM DTT, 0.2 mM ATP, 100 mM KCl, 2.0 mM MgCl2) at room temperature for 60 min. Polymerized actin was sedimented by centrifugation at […] for 1 hr. Equal volumes of the particulate and supernatant fractions were analyzed by SDS-PAGE and immunoblotting.
# [5] = test system: chick E7 DRG neurons; test: Neurite outgrowth of embryonic chick DRG neurons after HSV infection or protein trituration; type: cell-based
# From the text: Herpes simplex virus preparation and protein trituration. The coding region of mouse SPRR1A was amplified by PCR with an in-frame C-terminal Myc epitope and ligated to the pHSVprPUC vector. Similarly, the S100C coding region with a Myc tag was ligated to pHSVprPUC vector. The resulting plasmids were transfected into 2-2 cells with Fugene and then superinfected with 5 dl 1.2 herpes simplex virus (HSV) helper virus 1 d later as described previously (Nakamura et al., 1998; Takahashi et al., 1998, 1999). Recombinant virus was amplified through three passages and stored at −80° C. Freshly dissociated DRG neurons were allowed to adhere to cultured dishes for 30 min and then incubated with HSV preparations encoding for SPRR1A, S100C, enhanced green fluorescent protein (EGFP), or Nogo receptor. Recombinant SPRR1A and S100C protein were triturated into dissociated DRGs by repetitive pipetting in the presence of 1 mg/ml of protein as described previously (Jin and Strittmatter, 1997).
# as §1
molecule,measurement,setting,value
"p-thio-GTGGGAACTCATGGTTAGAT (all phosphorothioate, sugars by position and methylation of C not given here) [antisense oligonucleotide]","SPRR1A protein level (immunoblot, immunohistochemistry)",[1],significantly and selectively decreased; also recorded: decreases to nearly basal levels
same,"neurite length, preconditioned neurons","[2]; adult preconditioned DRG neurons, 36 hr, vs sense-treated",significant decrease in neurite length
same,"axonal branching index, preconditioned neurons","[2]; adult preconditioned DRG neurons, vs sense-treated",marked increase
same,effect on naive neurons (do not express SPRR1A),[2]; naive adult mouse DRG neurons,lack of effect
"acetyl-HPKAPEPCNPKVPEPCQPKVPEPC-amide (Ac-HPKAPEPCNPKVPEPCQPKVPEPC-NH2; cysteine pairing not given here; listed as Mus musculus) [SEQ ID NO:3, 24 amino acid peptide consisting of three XPKXPEPC octapeptide repeats of SPRR1A]",enhancement of average neurite outgrowth,[3]; 5-25 μM peptide,1.7 fold
same,enhancement of neurite outgrowth,[3]; 100-500 μM peptide,2.5 fold
"SPRR1A: Recombinant mouse small proline-rich repeat protein SPRR1A purified from transformed Escherichia coli (protein, listed as Mus musculus) MSSHQQKQPCTVPPQLHQQQVKQPCQPPPQEPCAPKTKDPCHPVPEPCNPKGPEPCHPKAPEPCHPKAPEPCNPKVPEPCQPKVPEPCQPKVPEPCNPKVPEPCQPKAPEPCHPKAPEPCHPVVPEPCPSTVTPSPYQQKTKQK",direct physical association with F-actin,[4],no direct physical association
same,"neurite outgrowth, protein added to the culture medium without trituration",[5]; no trituration,does not alter outgrowth
same,neurite outgrowth in neurons triturated with purified protein,"[5]; recombinant protein triturated into DRG neurons, 1 mg/ml",increase in neurite outgrowth
